Calls of active or inactive are those of the source. The rule behind the calls is not given here.
What was measured:
[1] = biological target: T1, Estrogen receptor (Homo sapiens) (UniProt P03372); experiment: Induction of ERalpha protein degradation in human MCF7 cells at 5 uM incubated for 20 hrs by Western blot analysis relative to control; format: cell-based
T1 sequence (whole entry): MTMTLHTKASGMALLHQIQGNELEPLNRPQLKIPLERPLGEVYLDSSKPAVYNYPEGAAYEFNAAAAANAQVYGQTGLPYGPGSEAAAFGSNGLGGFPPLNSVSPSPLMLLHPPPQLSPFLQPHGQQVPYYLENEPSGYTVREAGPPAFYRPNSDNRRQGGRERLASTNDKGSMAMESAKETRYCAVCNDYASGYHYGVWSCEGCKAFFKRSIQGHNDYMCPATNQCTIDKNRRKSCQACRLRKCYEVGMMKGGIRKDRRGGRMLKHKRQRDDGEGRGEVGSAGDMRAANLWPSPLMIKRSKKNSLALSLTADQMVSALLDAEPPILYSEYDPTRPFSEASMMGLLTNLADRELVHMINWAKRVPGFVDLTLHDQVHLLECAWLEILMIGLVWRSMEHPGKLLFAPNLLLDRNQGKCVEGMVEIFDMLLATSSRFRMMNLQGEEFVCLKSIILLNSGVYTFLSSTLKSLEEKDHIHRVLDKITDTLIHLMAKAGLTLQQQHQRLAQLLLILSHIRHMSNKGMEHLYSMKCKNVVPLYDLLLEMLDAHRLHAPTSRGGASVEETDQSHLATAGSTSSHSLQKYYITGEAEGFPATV

[2] = biological target: T1, Estrogen receptor (Homo sapiens); experiment: Binding affinity to purified human ERalpha LBD incubated for 2 hrs by fluorescence tracer based competitive fluorometric binding assay relative to estradiol
[3] = biological target: Estrogen receptor beta (Homo sapiens) (UniProt Q92731); experiment: Binding affinity to ERbeta (unknown origin) incubated for 2 hrs by fluorescence tracer based competitive fluorometric binding assay relative to estradiol
Sequence of Estrogen receptor beta (Homo sapiens) (Q92731 whole entry): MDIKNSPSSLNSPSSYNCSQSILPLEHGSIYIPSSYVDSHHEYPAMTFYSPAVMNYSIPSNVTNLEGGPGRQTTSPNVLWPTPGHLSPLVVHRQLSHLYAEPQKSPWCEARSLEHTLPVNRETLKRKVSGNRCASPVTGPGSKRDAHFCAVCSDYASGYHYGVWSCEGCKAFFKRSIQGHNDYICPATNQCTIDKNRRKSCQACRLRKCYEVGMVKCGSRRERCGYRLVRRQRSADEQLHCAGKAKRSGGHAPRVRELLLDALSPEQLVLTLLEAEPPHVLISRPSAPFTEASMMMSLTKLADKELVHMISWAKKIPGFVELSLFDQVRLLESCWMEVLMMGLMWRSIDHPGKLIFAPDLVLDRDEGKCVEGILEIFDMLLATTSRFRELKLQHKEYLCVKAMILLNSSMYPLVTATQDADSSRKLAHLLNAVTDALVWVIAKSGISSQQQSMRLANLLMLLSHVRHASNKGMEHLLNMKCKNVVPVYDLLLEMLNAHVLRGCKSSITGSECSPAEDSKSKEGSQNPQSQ

[4] = biological target: T1, Estrogen receptor (Homo sapiens); experiment: Induction of ERalpha protein degradation in human MCF7 cells assessed as ERalpha protein level at 10 uM incubated for 20 hrs by Western blot analysis relative to control; format: cell-based
MCF7 = experiment: cells; conditions: Homo sapiens, MCF7, 72 h
Description: Antiproliferative activity against human MCF7 cells incubated for 72 hrs by MTT assay

[5] = biological target: T1, Estrogen receptor (Homo sapiens); experiment: Induction of ERalpha protein degradation in human MCF7 cells at 1 uM incubated for 20 hrs by Western blot analysis relative to control; format: cell-based
[6] = biological target: T1, Estrogen receptor (Homo sapiens); experiment: Induction of ERalpha protein degradation in human MCF7 cells at 0.5 uM incubated for 20 hrs by Western blot analysis; format: cell-based
[7] = Clearance in Sprague-Dawley rat at 3 mg/kg, iv by LC-MS/MS analysis; format: ADME, organism-based; conditions: in vivo
[8] = Half life in Sprague-Dawley rat at 3 mg/kg, iv by LC-MS/MS analysis; format: ADME, organism-based; conditions: in vivo
[9] = Cmax in Sprague-Dawley rat at 3 mg/kg, iv by LC-MS/MS analysis; format: ADME, organism-based; parameters: dose 3 mg/kg, route intravenous; conditions: in vivo
[10] = AUC in Sprague-Dawley rat at 3 mg/kg, iv by LC-MS/MS analysis; format: ADME, organism-based; conditions: in vivo
[11] = Volume of distribution at steady state in Sprague-Dawley rat at 3 mg/kg, iv by LC-MS/MS analysis; format: ADME, organism-based; conditions: in vivo, read-out: Vdss
[12] = Half life in Sprague-Dawley rat at 10 mg/kg, po by LC-MS/MS analysis; format: ADME, organism-based; conditions: in vivo
[13] = Cmax in Sprague-Dawley rat at 10 mg/kg, po by LC-MS/MS analysis; format: ADME, organism-based; parameters: dose 10 mg/kg, route oral; conditions: in vivo
[14] = AUC in Sprague-Dawley rat at 10 mg/kg, po by LC-MS/MS analysis; format: ADME, organism-based; conditions: in vivo
[15] = Oral bioavailability in Sprague-Dawley rat at 10 mg/kg by LC-MS/MS analysis; format: ADME, organism-based; conditions: in vivo

| Compound | RBA [2] [%] | RBA [3] [%] | Activity [4] [%] | IC50 (MCF7) [µM] | further results |
| --- | --- | --- | --- | --- | --- |
| COc1ccc(N(CC(F)(F)F)S(=O)(=O)[C@H]2C[C@H]3O[C@@H]2C(c2ccc(O)cc2)=C3c2ccc(O)cc2)cc1 | – | – | – | – | Activity [1]: 100% |
| COc1ccc(N(CC(F)(F)F)S(=O)(=O)[C@H]2C[C@H]3O[C@@H]2C(c2ccc(OCCCCCCC(=O)O)cc2)=C3c2ccc(O)cc2)cc1 (relative stereo) | 1.82 | 0.13 | 32 | 15.9 | – |
| CCN(c1ccc(OCCN2CCCCC2)cc1)S(=O)(=O)[C@H]1C[C@H]2O[C@@H]1C(c1ccc(O)cc1)=C2c1ccc(O)cc1 (relative stereo) | 0.58 | 0.25 | 89 | 5.4 | – |
| COc1ccc(N(CC(F)(F)F)S(=O)(=O)[C@H]2C[C@H]3O[C@@H]2C(c2ccc(OCCCCCCCC(=O)O)cc2)=C3c2ccc(O)cc2)cc1 (relative stereo) | 0.07 | < 0.01 | 42 | 40.3 | – |
| CN(c1ccccc1)S(=O)(=O)[C@H]1C[C@H]2O[C@@H]1C(c1ccc(OCCN3CCCCC3)cc1)=C2c1ccc(O)cc1 (relative stereo) | 0.95 | 0.79 | 98 | 15.2 | – |
| CCN(c1ccccc1)S(=O)(=O)[C@H]1C[C@H]2O[C@@H]1C(c1ccc(OCCCCCCCC(=O)O)cc1)=C2c1ccc(O)cc1 (relative stereo) | 1.2 | 0.4 | 79 | 27.4 | – |
| CCN(c1ccccc1)S(=O)(=O)[C@H]1C[C@H]2O[C@@H]1C(c1ccc(OCCCCCCCCCCC(=O)O)cc1)=C2c1ccc(O)cc1 (relative stereo) | 0.93 | 0.13 | 51 | 10.3 | – |
| CCN(c1ccccc1)S(=O)(=O)[C@H]1C[C@H]2O[C@@H]1C(c1ccc(OCCN3CCCCC3)cc1)=C2c1ccc(O)cc1 (relative stereo) | 2.51 | 0.81 | 95 | 12.9 | – |
| O=S(=O)([C@H]1C[C@H]2O[C@@H]1C(c1ccc(OCC(O)CO)cc1)=C2c1ccc(O)cc1)N(CC(F)(F)F)c1ccc(Cl)cc1 (relative stereo) | 1.62 | < 0.01 | 38 | 16.8 | – |
| COc1ccc(N(CC(F)(F)F)S(=O)(=O)[C@H]2C[C@H]3O[C@@H]2C(c2ccc(OCCCCCCCCCCC(=O)O)cc2)=C3c2ccc(O)cc2)cc1 (relative stereo) | 0.06 | 0.7 | 83 | 14.3 | – |
| CCN(c1ccccc1)S(=O)(=O)[C@H]1C[C@H]2O[C@@H]1C(c1ccc(OCC(O)CO)cc1)=C2c1ccc(O)cc1 (relative stereo) | 0.26 | 0.28 | 117 | 33.6 | – |
| CCN(c1ccc(OCC(O)CO)cc1)S(=O)(=O)[C@H]1C[C@H]2O[C@@H]1C(c1ccc(O)cc1)=C2c1ccc(O)cc1 (relative stereo) | 0.46 | 0.53 | 63 | 32.3 | – |
| CCN(c1ccc(OCCCCCCCCCCC(=O)O)cc1)S(=O)(=O)[C@H]1C[C@H]2O[C@@H]1C(c1ccc(O)cc1)=C2c1ccc(O)cc1 (relative stereo) | 0.57 | < 0.01 | 29 | 18.4 | – |
| CCN(c1ccc(OCCCCCCC(=O)O)cc1)S(=O)(=O)[C@H]1C[C@H]2O[C@@H]1C(c1ccc(O)cc1)=C2c1ccc(O)cc1 (relative stereo) | 1.22 | 0.41 | 92 | > 50 | – |
| COc1ccc(N(CC(F)(F)F)S(=O)(=O)[C@H]2C[C@H]3O[C@@H]2C(c2ccc(OCCN4CCCC4)cc2)=C3c2ccc(O)cc2)cc1 (relative stereo) | 2.12 | 1.81 | 1 | 6.1 | Activity [5]: 100%; Activity [6]: Active; clearance [7]: 46 mL/min/kg; half-life [8]: 6.2 h; Cmax [9]: 1000 ng/mL; AUC [10]: 1080 ng·h/mL; Vd [11]: 9.55 L/kg; half-life [12]: 3.7 h; Cmax [13]: 50 ng/mL; AUC [14]: 330 ng·h/mL; bioavailability [15]: 9.2% |
| CCN(c1ccc(OCCCCCCCC(=O)O)cc1)S(=O)(=O)[C@H]1C[C@H]2O[C@@H]1C(c1ccc(O)cc1)=C2c1ccc(O)cc1 (relative stereo) | 3.21 | 0.42 | 78 | 24.9 | – |
| CC/C(=C(\c1ccc(O)cc1)c1ccc(OCCN(C)C)cc1)c1ccccc1 [AFIMOXIFENE] | – | – | – | 10.1 | – |

Reference: ChEMBL document CHEMBL4346693, “Exploring the PROTAC degron candidates: OBHSA with different side chains as novel selective estrogen receptor degraders (SERDs)” (Eur J Med Chem, 2019)
